Laboratory results reported in article PMC7238120, “Strong and Selective Inhibitory Effects of the Biflavonoid Selamariscina A against CYP2C8 and CYP2C9 Enzyme Activities in Human Liver Microsomes” (Pharmaceutics, 2020).
Where two headings read alike, the source gives them in different places.

Molecular target: T1, CYP1A2 (Homo sapiens, UniProt P05177)
T1 construct: incubation mixtures containing pooled human liver microsomes (HLMs, XTreme 200, XenoTech); tissue XenoTech XTreme 200; host or cells: pooled human liver microsomes
T1 sequence (P05177 1-516): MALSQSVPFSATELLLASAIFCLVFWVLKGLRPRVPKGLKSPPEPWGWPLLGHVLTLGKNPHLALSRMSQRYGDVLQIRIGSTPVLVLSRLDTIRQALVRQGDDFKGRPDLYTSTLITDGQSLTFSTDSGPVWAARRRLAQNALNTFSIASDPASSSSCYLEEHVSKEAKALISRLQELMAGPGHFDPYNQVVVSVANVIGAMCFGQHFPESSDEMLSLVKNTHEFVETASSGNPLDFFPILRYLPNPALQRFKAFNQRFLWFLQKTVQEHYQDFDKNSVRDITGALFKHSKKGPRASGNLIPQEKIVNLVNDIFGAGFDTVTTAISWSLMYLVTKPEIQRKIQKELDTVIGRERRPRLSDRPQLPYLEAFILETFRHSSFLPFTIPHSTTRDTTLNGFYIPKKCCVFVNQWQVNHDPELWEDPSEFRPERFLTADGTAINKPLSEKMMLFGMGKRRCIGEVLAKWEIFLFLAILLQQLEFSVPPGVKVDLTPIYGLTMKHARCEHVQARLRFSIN
Assay: Inhibition of CYP1A2-catalyzed phenacetin O-deethylation in pooled human liver microsomes
Format: in vitro ADME
Procedure: The inhibitory potential of the five biflavonoids on the metabolism of nine P450 probe substrates was evaluated using previously developed methods with minor modifications. Biflavonoids were dissolved in methanol. The final concentration of methanol in the incubation mixture was 1.0% (v/v). We used these P450 probe substrates: phenacetin for CYP1A2, coumarin for CYP2A6, bupropion for CYP2B6, amodiaquine for CYP2C8, diclofenac for CYP2C9, omeprazole for CYP2C19, dextromethorphan for CYP2D6, chlorzoxazone for CYP2E1 and midazolam for CYP3A (Table 1). […] The reaction was stopped by adding 50 μL of ice-cold acetonitrile containing 7 nM trimipramine (internal standard, IS). After centrifugation at 18,000 g (5 min, 4 °C), aliquots of supernatants were analyzed by LC-MS/MS (Shimadzu LCMS 8060 system, Shimadzu, Kyoto, Japan). All microsomal incubations were conducted in triplicate. We used HLMs to determine the mechanisms and constants (Ki values) for […] A inhibition of CYP1A2, CYP2B6, CYP2C8, CYP2C9 and CYP3A. […] The substrates were used at concentrations approximately near to their respective Km values. […] The other conditions were the same as in the cytochrome P450 inhibition study. […] Phenomenex, Torrance, CA, USA) and analyzed using a Shimadzu LCMS 8060 triple-quadrupole mass spectrometer coupled with a Nexera X2 ultra high-performance liquid chromatography system (Shimadzu, Kyoto, Japan) equipped with an electrospray ionization interface. The mobile phase consisted of 0.1% formic acid in water (A) and 0.1% formic acid in acetonitrile (B). […] The flow rate was 0.2 mL/min. Electrospray ionization was performed in positive-ion mode at 4000 V or in negative-ion mode at -3500 V. […] Quantitation was conducted in selected reaction monitoring (SRM) modes with the precursor-to-product ion transition for each metabolite (Table 1 and Table 2). We analyzed the data with Shimadzu LabSolution LC-MS software. The IC50 values were calculated by WinNonlin software (Pharsight, Mountain View, CA, USA). The type of inhibition and the apparent kinetic parameters for inhibitory activity (Ki) were determined by following several criteria: visual inspection of Dixon plots, Lineweaver-Burk double reciprocal plots, and secondary plots of Lineweaver-Burk plots versus biflavonoid concentrations, the size of the sum of squares of the residuals, Akaike Information Criteria values, the S.E. and 95% confidence interval of the parameter estimates from the nonlinear regression analysis using the WinNonlin software. The models tested included competitive, competitive partial, noncompetitive, noncompetitive partial, uncompetitive, uncompetitive partial, and mixed-type inhibition.

[1] = substrate phenacetin 100 µM, pooled HLMs, read-out: IC50, P450 1A2

IC50 [1] [µM]	SMILES	also measured
5.9	O=c1cc(-c2ccc(O)cc2)oc2c(-c3c(O)cc(O)c4c(=O)cc(-c5ccc(O)cc5)oc34)c(O)cc(O)c12 [cupressuflavone]	–
4.5	O=c1cc(-c2ccc(O)c(-c3c(O)cc4oc(-c5ccc(O)cc5)cc(=O)c4c3O)c2)oc2cc(O)cc(O)c12 [robustaflavone]	–
7.4	O=C1CC(c2cc(-c3c(O)ccc4c(=O)cc(-c5ccc(O)cc5)oc34)c(O)cc2O)Oc2cc(O)cc(O)c21 (centres unmarked) [selamariscina A]	Mode of Inhibition, CYP1A2 phenacetin (HLMs): Competitive; Ki (HLMs, average ± standard error, triplicate): 3.1 ± 0.6 µM

The remaining lines, values behind:

SMILES	IC50 [1] [µM]	also measured
O=c1cc(-c2ccc(O)c(-c3c(O)cc(O)c4c(=O)cc(-c5ccc(O)cc5)oc34)c2)oc2cc(O)cc(O)c12 [amentoflavone]	–	IC50: 4.4 µM
CC(C)(O)c1ccccc1CC[C@@H](SCC1(CC(=O)O)CC1)c1cccc(/C=C/c2ccc3ccc(Cl)cc3n2)c1 [montelukast, reference compound]	> 50	–
O=c1cc(-c2ccc(O)c(-c3c(-c4ccc(O)cc4)oc4cc(O)cc(O)c4c3=O)c2)oc2cc(O)cc(O)c12 [taiwaniaflavone]	6.8	–
